# Experimental data published in patent US6642271B2, “Potentiating compounds” (Ardenia Investments, Ltd., priority 2001, dated 2003).
# Columns and labels:
# [1] = system: human breast adenocarcinoma MDA-MB-231 cell line; experiment: Cytotoxicity: cell growth inhibition in cultures, viable cells counted by trypan blue exclusion; format: cell-based; details: for inhibition at 0.04 µM / inhibition at 1 µM / inhibition at 0.1 µM / inhibition at 0.01 µM / inhibition at 0.001 µM / inhibition at 0.0001 µM / inhibition at 10 pM: Homo sapiens; for Cell growth inhibition % Formulation: compound/paclitaxel formulations in saline; for Cell growth inhibition % OF W/SAB / Cell growth inhibition % OF SAB/W: dried compound/paclitaxel mixed-micellar system (OF); for Cell growth inhibition % OF W/SAB: freeze-dried as water solution, reconstituted with 0.05 M sodium acetate buffer; for Cell growth inhibition % OF SAB/W: freeze-dried in 0.05 M sodium acetate buffer, reconstituted with water
# Procedure: The cell line was propagated by cultivation in Nunclon 25 cm^2 flasks (Nunc A/S, Denmark) in Minimum Essential Medium Eagle (MEM), containing antibiotics and supplemented with 10% (v/v) fetal bovine serum (FBS) (Sigma, St. Louis, Mo., USA). The cultures were maintained in growth medium at 37° C. in a humidified atmosphere, 95% air and 5% CO2.
# A suspension of tumour cells (60×10^3 cells/mL) was prepared in MEM with 5% FBS and antibiotics. Cell suspension (200 μL) was seeded in wells of Nunclon 96-microwell plates (Nunc A/S, Denmark) at a density of 12×10^3 cell/well. The solutions of the drugs to be tested were added to the cultures on day 0 or day 1 in volumes of 2 μL. In all cases the cells were incubated for 3 days.
# At the end of the incubation period, adherent cells were detached by trypsinization and the number of viable cells was counted using trypan blue dye exclusion test and a hemocytometer.
# All experiments were performed at least twice and the cells counts were done in triplicate for each drug concentration. Each control and test series consisted of 6-8 cultures. The results are expressed as mean cell number ±SD and the differences between control and test series were evaluated by means of Student's t-test. The cytotoxicity of each tested drug was evaluated by the extent of cell growth inhibition. The Cell growth inhibition was evaluated as follows:
# Cell growth inhibition, %=- - - ×100
# [2] = Solubility of compounds and formulations; format: physicochemical; details: for solubility in solvents: sodium salts
# Procedure: The obtained solution can be stored for at least three months at low temperatures, without noticeable change in the properties of compound (I-VI). Moreover, the formulation retains its cytotoxic effects during prolonged storage. Before use, the solution is evaporated in vacuo to yield a waxy solid which is dissolved in saline or other commonly used vehicle for intravenous infusion to a patient. […] An ethanol solution is prepared of one of N-(all-trans-Retinoyl)-L-cysteic acid (I), N-(13-cis-Retinoyl)-L-cysteic acid (11), N-(all-trans-Retinoyl)-L-homocysteic acid (III), N-(13-cis-Retinoyl)-L-homocysteic acid (IV), N-(all-trans-Retinoyl)-L-cysteinesulfinic acid (V), or N-(13-cis-Retinoyl)-L-cysteinesulfinic acid (VI). The obtained solution is evaporated in vacuo to give waxy solid, whereupon Taxol® is added, dissolving the waxy solid. […]
# [3] = MDA-MB-231, sodium salt in saline, final 4 × 10^−8 mol/L, day 1, three days
# [4] = MDA-MB-231, sodium salt in saline, final 10^−6 mol/L (top of range 10^−11 M to 10^−6 M), day 1, three days
# [5] = MDA-MB-231, sodium salt in saline, final 10^−7 mol/L, day 1, three days
# [6] = MDA-MB-231, sodium salt in saline, final 10^−8 mol/L, day 1, three days
# [7] = MDA-MB-231, sodium salt in saline, final 10^−9 mol/L, day 1, three days
# [8] = MDA-MB-231, sodium salt in saline, final 10^−10 mol/L, day 1, three days
# [9] = MDA-MB-231, sodium salt of the compound dissolved in saline (1 mg/ml), final concentration 10^−11 mol/L, day 1, three days
# [10] = sodium salt in saline, final 4 × 10^−8 mol/L, day 1, three days
# [11] = sodium salt in saline, final 10^−6 mol/L (top of range 10^−11 M to 10^−6 M), day 1, three days
# [12] = sodium salt in saline, final 10^−6 mol/L, day 1, three days
# [13] = sodium salt in saline, final 10^−7 mol/L, day 1, three days
# [14] = sodium salt in saline, final 10^−8 mol/L, day 1, three days
# [15] = sodium salt in saline, final 10^−9 mol/L, day 1, three days
# [16] = sodium salt in saline, final 10^−10 mol/L, day 1, three days
# [17] = sodium salt of the compound dissolved in saline (1 mg/ml), final concentration 10^−11 mol/L, day 1, three days
# [18] = initial saline solution 0.005 mg/mL, final 40 nM in cultures, added day 1, three days of cultivation
# [19] = initial saline solution 0.5 mg/mL, final 40 nM, day 1, three days
# [20] = initial saline solution 1.0 mg/mL, final 40 nM, day 1, three days
# [21] = initial saline solution 5.0 mg/mL, final 40 nM, day 1, three days
smiles,measurement,setting,value
"CC1=C(/C=C/C(C)=C/C=C/C(C)=C\C(=O)N[C@@H](CCS(=O)(=O)O)C(=O)O)C(C)(C)CCC1 [Compound IV, N-(13-cis-Retinoyl)-L-homocysteic acid]",inhibition at 0.04 µM,[1]; [3],29.6%
same,inhibition at 1 µM,[1]; [4],31.9%
same,inhibition at 0.1 µM,[1]; [5],31.1%
same,inhibition at 0.01 µM,[1]; [6],24.9%
same,inhibition at 0.001 µM,[1]; [7],17.3%
same,inhibition at 0.0001 µM,[1]; [8],16.1%
same,inhibition at 10 pM,[1]; [9],14.8%
same,Cell growth inhibition % Formulation,[1],close to 60%
same,Cell growth inhibition % OF W/SAB,[1],close to 62%
same,Cell growth inhibition % OF SAB/W,[1],close to 63%
same,number of living cells,[1]; [10],37.1 ± 2.56 × 10^3
same,cell growth inhibition,[1]; [11],~35%
same,number of living cells,[1]; [12],35.9 ± 2.29 × 10^3
same,number of living cells,[1]; [13],36.3 ± 2.08 × 10^3
same,number of living cells,[1]; [14],39.6 ± 2.74 × 10^3
same,number of living cells,[1]; [15],43.6 ± 3.21 × 10^3
same,number of living cells,[1]; [16],44.2 ± 3.35 × 10^3
same,number of living cells,[1]; [17],44.9 ± 3.02 × 10^3
same,solubility in the commercially available Taxol® preparation,[2],excellent solubility
same,solubility in solvents,[2],also dissolved in methanol and some methanol containing mixtures
"CC1=C(/C=C/C(C)=C/C=C/C(C)=C/C(=O)N[C@@H](CCS(=O)(=O)O)C(=O)O)C(C)(C)CCC1 [Compound III, N-(all-trans-Retinoyl)-L-homocysteic acid]",inhibition at 0.04 µM,[1]; [3],32.8%
same,inhibition at 1 µM,[1]; [4],36.1%
same,inhibition at 0.1 µM,[1]; [5],34.4%
same,inhibition at 0.01 µM,[1]; [6],25.8%
same,inhibition at 0.001 µM,[1]; [7],19.7%
same,inhibition at 0.0001 µM,[1]; [8],15.5%
same,inhibition at 10 pM,[1]; [9],16.9%
same,Cell growth inhibition % Formulation,[1],close to 60%
same,Cell growth inhibition % OF W/SAB,[1],close to 62%
same,Cell growth inhibition % OF SAB/W,[1],close to 63%
same,number of living cells,[1]; [10],36.5 ± 2.08 × 10^3
same,cell growth inhibition,[1]; [11],~35%
same,number of living cells,[1]; [12],34.7 ± 1.52 × 10^3
same,number of living cells,[1]; [13],35.6 ± 1.68 × 10^3
same,number of living cells,[1]; [14],40.3 ± 3.36 × 10^3
same,number of living cells,[1]; [15],43.6 ± 2.57 × 10^3
same,number of living cells,[1]; [16],45.9 ± 2.84 × 10^3
same,number of living cells,[1]; [17],45.1 ± 3.51 × 10^3
same,solubility in the commercially available Taxol® preparation,[2],excellent solubility
same,solubility in solvents,[2],also dissolved in methanol and some methanol containing mixtures
"CC1=C(/C=C/C(C)=C/C=C/C(C)=C\C(=O)N[C@@H](CS(=O)(=O)O)C(=O)O)C(C)(C)CCC1 [Compound II, N-(13-cis-Retinoyl)-L-cysteic acid]",inhibition at 0.04 µM,"[1]; MDA-MB-231, compound alone 4 × 10^−8 mol/L (40 nM), added day 0, three days",35.3%
same,inhibition at 0.04 µM,"[1]; MDA-MB-231, dry substance, stock 1 mg/ml in saline, final 4 × 10^−8 mol/L, day 1, three days",36.8%
same,inhibition at 1 µM,"[1]; MDA-MB-231, dry substance, stock 1 mg/ml in saline, final 10^−6 mol/L, day 1, three days",41.9%
same,inhibition at 0.1 µM,"[1]; MDA-MB-231, dry substance, stock 1 mg/ml in saline, final 10^−7 mol/L, day 1, three days",38.4%
same,inhibition at 0.01 µM,"[1]; MDA-MB-231, dry substance, stock 1 mg/ml in saline, final 10^−8 mol/L, day 1, three days",27.5%
same,inhibition at 0.001 µM,"[1]; MDA-MB-231, dry substance, stock 1 mg/ml in saline, final 10^−9 mol/L, day 1, three days",21.5%
same,inhibition at 0.0001 µM,"[1]; MDA-MB-231, dry substance, stock 1 mg/ml in saline, final 10^−10 mol/L, day 1, three days",17.8%
same,inhibition at 10 pM,"[1]; MDA-MB-231, dry substance, stock 1 mg/ml in saline, final concentration 10^−11 mol/L, day 1, three days",28.9%
same,inhibition at 0.04 µM,[1]; [3],46.8%
same,inhibition at 1 µM,[1]; [4],51.6%
same,inhibition at 0.1 µM,[1]; [5],46%
same,inhibition at 0.01 µM,[1]; [6],46.5%
same,inhibition at 0.001 µM,[1]; [7],41.2%
same,inhibition at 0.0001 µM,[1]; [8],35.1%
same,inhibition at 10 pM,[1]; [9],27.9%
same,cell growth inhibition,"[1]; compound alone 4 × 10^−8 mol/L (40 nM), added day 0, three days, 0.04 µM",~40%
same,number of living cells,"[1]; compound alone 4 × 10^−8 mol/L, added day 0, three days",29.9 ± 2.38 × 10^3
same,Cell growth inhibition % Formulation,[1],close to 75%
same,Cell growth inhibition % OF W/SAB,[1],close to 71%
same,Cell growth inhibition % OF SAB/W,[1],close to 72%
same,number of living cells,"[1]; dry substance, stock 1 mg/ml in saline, final 4 × 10^−8 mol/L, day 1, three days",32.6 ± 2.52 × 10^3
same,number of living cells,"[1]; dry substance, stock 1 mg/ml in saline, final 10^−6 mol/L, day 1, three days",30.0 ± 2.14 × 10^3
same,number of living cells,"[1]; dry substance, stock 1 mg/ml in saline, final 10^−7 mol/L, day 1, three days",31.8 ± 2.05 × 10^3
same,number of living cells,"[1]; dry substance, stock 1 mg/ml in saline, final 10^−8 mol/L, day 1, three days",37.4 ± 3.86 × 10^3
same,number of living cells,"[1]; dry substance, stock 1 mg/ml in saline, final 10^−9 mol/L, day 1, three days",40.5 ± 2.11 × 10^3
same,number of living cells,"[1]; dry substance, stock 1 mg/ml in saline, final 10^−10 mol/L, day 1, three days",42.4 ± 1.93 × 10^3
same,number of living cells,"[1]; dry substance, stock 1 mg/ml in saline, final concentration 10^−11 mol/L, day 1, three days",36.7 ± 3.65 × 10^3
same,cell growth inhibition,[1]; [18],32.6%
same,number of living cells,[1]; [18],34.8 ± 3.27 × 10^3
same,number of living cells,"[1]; initial saline solution 0.05 mg/mL, final 40 nM, day 1, three days",33.4 ± 2.91 × 10^3
same,cell growth inhibition,[1]; [19],35.9%
same,number of living cells,[1]; [19],33.1 ± 3.01 × 10^3
same,cell growth inhibition,[1]; [20],37.6%
same,number of living cells,[1]; [20],32.2 ± 2.14 × 10^3
same,cell growth inhibition,[1]; [21],29.3%
same,number of living cells,[1]; [21],36.5 ± 3.88 × 10^3
same,number of living cells,[1]; [10],31.2 ± 2.33 × 10^3
same,cell growth inhibition,[1]; [11],~50%
same,number of living cells,[1]; [12],28.4 ± 1.02 × 10^3
same,number of living cells,[1]; [13],31.7 ± 1.54 × 10^3
same,number of living cells,[1]; [14],31.4 ± 1.62 × 10^3
same,number of living cells,[1]; [15],34.5 ± 1.94 × 10^3
same,number of living cells,[1]; [16],38.1 ± 1.18 × 10^3
same,number of living cells,[1]; [17],42.3 ± 2.32 × 10^3
same,solubility in the commercially available Taxol® preparation,[2],excellent solubility
same,solubility in solvents,[2],soluble only in mixtures containing water
